The numbers were not newly measured in patent publication US20250255800A1, “DETERGENT COMPOSITIONS FOR WASHING URUSHIOL AND METHODS OF TREATING URUSHIOL INDUCED CONTACT DERMATITIS” (THE WILLIAM M. YARBROUGH FOUNDATION, priority 2020, published 2025), which cites them from elsewhere.

In one data set the test system is aquatic organisms. Particulars: EPA statement / GHS Hazard Statement H411.
The conditions of data set [1]: in vitro and in vivo assays.

As for nonoxynol 9 [nonoxynol-9], in the data set on aquatic organisms, the “toxicity to aquatic life” value is listed as “toxic to aquatic life with long lasting effects”.
For the substance nonylphenol [nonylphenol (NP)], the “toxicity to aquatic life” value in the data set on aquatic organisms was “extremely toxic to aquatic organisms”. In addition, in data set [1], the estrogenic properties entry is reported as “exhibit estrogenic properties”.
